Results reported in patent publication US20130059876A1, “LIQUID NASAL SPRAY CONTAINING LOW-DOSE NALTREXONE” (L Molteni & C Dei Fratelli Alitti Societa Di Esercizio S.p.A, priority 2010, published 2013).
Several values for one entry are separate records, joined by “and”; a condition that tells them apart may be missing. Identical values can stand only once.

Legend:
[1] = system: Oncologic patients receiving therapy with morphine orally; experiment: Clinical study: naltrexone in oncologic patients receiving therapy with morphine orally; format: in vivo; conditions: individual patient, ½ hour before oral morphine (average 40 mg +/- 10 mg)
[2] = system: Spine patients undergoing therapy with morphine by the spinal route; experiment: Clinical study: naltrexone in spine patients undergoing therapy with morphine by the spinal route; format: in vivo; conditions: individual patient, ½ hour before epidural load, spinal morphine (average 4.8 mg +/- 0.4 mg)
[3] = system: patients; conditions: patients (total number 80) before treatment with Naltrexone
[4] = naltrexone 0.125 mcg every 12 hours
[5] = naltrexone 2.5 mcg every 12 hours
[6] = naltrexone 5 mcg every 12 hours
[7] = naltrexone 1 mcg every 12 hours

O=C1CC[C@@]2(O)[C@H]3Cc4ccc(O)c5c4[C@@]2(CCN3CC2CC2)[C@H]1O5 [Naltrexone, naltrexone]
Analgesia (%): analgesic efficacy after administration of naltrexone ([1]; naltrexone 1 mg every 12 hours): 100% (8×) and 90% (2×) and 65% (2×) and 60% (2×) and 70% (3×) and 65%** (3×) and 55% and 75%** and 70%** and 85% (2×) and 45%** and 45% | Benefit (%): percentage reduction of adverse effects ([1]; naltrexone 1 mg every 12 hours): 90% (3×) and 65% (8×) and 40% (2×) and 70% (4×) and 100% (3×) and 75% and 95% and 0% and 55% and 50% and 80% (2×) | Analgesia (%): analgesic efficacy after administration of naltrexone [1, 4]: 45% (2×) and 55%** and 65%** and 60% | Benefit (%): percentage reduction of adverse effects [1, 4]: 65% (3×) and 40% and 100% | Analgesia (%): analgesic efficacy after administration of naltrexone ([1]; naltrexone 0.125 mcg/day): 60% | Benefit (%): percentage reduction of adverse effects ([1]; naltrexone 0.125 mcg/day): 100% | Analgesia (%): analgesic efficacy after administration of naltrexone [1, 5]: 0% and 45% (7×) and 55% (2×) and 60%** and 100% (2×) and 70% and 60% (3×) and 40% | Benefit (%): percentage reduction of adverse effects [1, 5]: 100% and 80% (5×) and 70% and 50% (3×) and 65% (2×) and 40% and 60% (2×) and 25% and 55% and 90% | Analgesia (%): analgesic efficacy after administration of naltrexone ([1]; naltrexone 2.5 mcg/day): 60% | Benefit (%): percentage reduction of adverse effects ([1]; naltrexone 2.5 mcg/day): 90% | Analgesia (%): analgesic efficacy after administration of naltrexone [1, 6]: 45% (2×) and 55% (5×) and 70% and 100% (3×) and 90% (3×) and 60% (3×) and 65% and 60%** (2×) and 65%** and 55%** and 70%** | Benefit (%): percentage reduction of adverse effects [1, 6]: 60% (4×) and 0% and 70% and 50% (3×) and 45% (4×) and 85% (2×) and 55% (2×) and 35% and 40% (2×) and 65% and 100% (2×) | Analgesia (%): analgesic efficacy after administration of naltrexone ([2]; naltrexone 1 mg every 12 hours): 95% and 60% and 65% | Benefit (%): percentage reduction of adverse effects ([2]; naltrexone 1 mg every 12 hours): 65% (2×) and 50% | Analgesia (%): analgesic efficacy after administration of naltrexone [2, 7]: 65% and 45% (2×) | Benefit (%): percentage reduction of adverse effects [2, 7]: 65% and 70% and 100% | Analgesia (%): analgesic efficacy after administration of naltrexone [2, 5]: 45% (2×) and 75% and 60% and 55% (2×) and 90% and 0% and 100% (3×) and 85% | Benefit (%): percentage reduction of adverse effects [2, 5]: 45% (2×) and 80% (4×) and 60% (3×) and 100% (2×) and 95% | Analgesia (%): analgesic efficacy after administration of naltrexone [2, 6]: 45% and 100% and 60% (3×) and 35% and 85% and 15% | Benefit (%): percentage reduction of adverse effects [2, 6]: 70% (2×) and 95% and 50% (3×) and 65% and 30%

CN1CC[C@]23c4c5ccc(O)c4O[C@H]2[C@@H](O)C=C[C@H]3[C@H]1C5 [morphine]
Incidence of adverse effects from morphine: Asthenia [3]: 43.3% | Incidence of adverse effects from morphine: Constipation [3]: 70% | Incidence of adverse effects from morphine: Dizziness [3]: 13.3% | Incidence of adverse effects from morphine: Drowsiness [3]: 30% | Incidence of adverse effects from morphine: Headache [3]: 6.7% | Incidence of adverse effects from morphine: Inappetence [3]: 46.7% | Incidence of adverse effects from morphine: Nausea [3]: 53.3% | Incidence of adverse effects from morphine: Pruritus [3]: 30% | Incidence of adverse effects from morphine: Vomiting [3]: 53.3%
